Experimental findings from patent US10111896B2, “Composition comprising a combination of DNA methylation inhibitor and a vitamin D receptor agonist for the treatment of drug resistant cancer or for the prevention of tumor relapse” (INSERM (Institut National de la Sante et de la Recherche …, priority 2014, dated 2018) are described below.

For assay [1], the system named is VDR promoter. Description: VDR promoter methylation analysis (methylation specific PCR) in primary AML samples. The format is cell-based, human. The conditions noted are these: 5-AZA 1 μM, 96 hours, vs not treated. The method, then:
(§1) (A) Schematic representation of the VDR promoter. 5′-CpG-3′ islands present in VDR promoter (region ranging from −1035 to −75+ bp relative to the exon 1a transcriptional start codon) represented by dashes. […] Cell viability was evaluated by ATP assay. Results are presented as mean±SEM (ns not significant, *p<0.05, **p<0.01, ***p<0.001). […] HL60 were mock-treated or treated with 5-AZA (5 μM) or Vitamin D ([…]; as positive control) for 6 hours. (E) VDR or VDR-target genes (CAMP and CYP24A1) expression was evaluated by qPCR. Results are presented as mean±SEM. […] Primary cells (n=3 patients) were mock-treated or treated with 5-AZA (5 μM) or inecalcitol (INEC; […]) or both for 6 hours. VDR or VDR-target genes (CAMP and CYP24A1) expression was evaluated by qPCR. Results are presented as mean±SEM.

Assay [2] deals with VDR and VDR targeted genes (CAMP and CYP24A1) in HL60 cells. The conditions noted are these: 6 hours. The method, then:
as §1

The subject of assay [3] is U937 cells. In words: Myeloid differentiation, CD11b and CD14 expression by flow cytometry in AML cell lines. The assay is classed as cell-based, human. The conditions noted are these: 5-AZA 5 μM, INEC 10 nM or both, 72 hours. Here is the method:
(A) Structural formulas of 1-25 dihydroxyvitamin D3 (VD) and VDR agonist Inecalcitol. http://www.chemblink.com/products/163217-09-2.htm. (B-D) Hypomethylating agents synergize with VDR agonists to promote myeloid differentiation and VDR activity. (B) U937 cells were mock-treated or treated with 5-AZA (5 μM), INEC (10 nM) or both for 72 hours. CD11b and CD14 expression was evaluated by flow cytometry. Results are presented in fold increase compared to vehicle Histograms are mean±SEM (n≥10; *p<0.05, **p<0.01, ***p<0.001). (C) HL60 cells were mock-treated or treated with 5-AZA (5 μM), with Vitamin D (300 nM) or INEC (10 nM) for 16 hours. Granocyte differentiation genes (PRTN3 and NE) and monocyte differentiation genes (TREML2 and SERPINB8) were accessed by qPCR. Results are presented as mean±SEM. (D) U937 cells were mock-treated or treated with 5-AZA (5 μM), INEC (10 nM) or both for 16 hours. VDR activation was evaluated by immunoblot using anti-phospho-VDR specific antibodies. VDR antibodies were used to control protein loading. (E-G) Combined Hypomethylating agents/VDR agonists therapy impairs tumor growth. (E) HL60 cells were mock-treated or treated with 5-AZA (5 μM), with INEC (10 nM) or both for 16 hours. […] (F) Expression of cell cycle regulator genes p15, p21 and p27 was evaluated by qPCR. […] The p-value was determined using the log-rank test. […]

For assay [4], the system named is U937 cells xenograft. In words: Subcutaneous U937 tumor xenograft in athymic Nude mice. The assay is classed as in vivo, mouse. The conditions noted are these: 5-AZA 5 mg/kg i.p. five injections, INEC 20 μg per mice i.p. three times a week, vs control mice. Here is the method: (B) U937 cells were mock-treated or treated with 5-AZA (5 μM), INEC (10 nM) or both for 72 hours. CD11b and CD14 expression was evaluated by flow cytometry. […] (C) HL60 cells were mock-treated or treated with 5-AZA (5 μM), with Vitamin D (300 nM) or INEC (10 nM) for 16 hours. Granocyte differentiation genes (PRTN3 and NE) and monocyte differentiation genes (TREML2 and SERPINB8) were accessed by qPCR. Results are presented as mean±SEM. (D) U937 cells were mock-treated or treated with 5-AZA (5 μM), INEC (10 nM) or both for 16 hours. VDR activation was evaluated by immunoblot using anti-phospho-VDR specific antibodies. VDR antibodies were used to control protein loading. […] (E) HL60 cells were mock-treated or treated with 5-AZA (5 μM), with INEC (10 nM) or both for 16 hours. Cell cycle analyses were performed by topro-3 labeling. Results are presented as mean±SEM. […] (F) Expression of cell cycle regulator genes p15, p21 and p27 was evaluated by qPCR. Results are presented as mean±SEM. (G) Kaplan-Meier plot of survival of mice treated with vehicle (PBS), 5-Acytidine (5 mg/kg intraperitoneally three times a week for five injections) and or INEC (20 μg per mice intraperitoneally, three time a week) after subcutaneous xenograft with U937 cells (n=8 tumors in each group). The p-value was determined using the log-rank test.
For tumor establishment, U937 or OCI-AML3 cells as indicated were mixed with Matrigel (BD Biosciences) (1:1, vol/vol) and injected subcutaneously (5×106/flank) into 10-week old female athymic Nude mice (Janvier laboratories, France). The mice were then injected i.p. with 5-Azacytidine (Celgene) (5 mg/kg on day 5, 7, 9, 11 and 13), Inecalcitol (Hybrigenics) (20 μg/day 3 times a week), and the combination of 5-Azacytidine and Inecalcitol or PBS as a vehicle control. The tumor growth was measured as previously described (Lepelletier 2007).

Assay [5] deals with VDR promoter. Description: Methylation-sensitive high resolution melting (MS-HRM) analysis on THP-1 cells. The following applies: 5-AZA 1 μM, 96 hours. The assay is classed as cell-based, human. The method, then:
as §1

The subject of assay [6] is wild-type MLL-ENL transformed cells. Description: Cell viability by ATP assay, wild-type MLL-ENL transformed cells. The following applies: growing concentrations, 72 h. The assay is classed as cell-based, mouse. The method, then: as §1
(§2) Cells were seeded into 96-well plates, and then returned to the 37° C. incubator after the addition of different reactives or vehicle controls DMSO and ethanol if not otherwise stated. Celltiter Glo reagents (Promega) were added after 48 to 96 hours to determine cell viability by measuring ATP levels.

In assay [7] the test system is VDR-target genes (CAMP and CYP24A1) in primary cells from AML patients. Description: qPCR of VDR-target genes in leukemic cells from AML patients. The following applies: primary cells from AML patients (n=3); 5-AZA 5 μM, 6 hours. The assay is classed as cell-based, human. Here is the method:
as §1

In assay [8] the test system is VDR-/- MLL-ENL transformed cells. Description: Cell viability by ATP assay, VDR-/- MLL-ENL transformed cells. The format is cell-based, mouse. The conditions noted are these: growing concentrations, 72 h. The method, then:
as §1, §2

Assay [9] deals with β-catenin in OCI-AML3 cells. In words: β-catenin expression by flow cytometry in OCI-AML3 cells. The assay is classed as cell-based, human. The conditions noted are these: INEC 10, 100 or 1000 nM, 48 hours.
Assay [10] concerns AML cells. Description: Dose-response studies of AML cells differentiation. The format is cell-based. The following applies: compared with VD.
Assay [11] concerns FLT3-ITD-transformed bone marrow hematopoietic progenitors. Description: Methylcellulose colony-forming and replating assay of FLT3-ITD transformed cells. The assay is classed as cell-based, mouse. Here is the method:
(A) Inecalcitol decreases clonogenicity of FLT3-ITD of transformed cells. FLT3-ITD-transformed bone marrow hematopoietic progenitors were plated (30.000 cells/condition) in semisolid methylcellulose media containing cytokines (M-3434) containing or not INEC (10 nM) and scored following 7 to 10 days of culture. For re-plating assays 10-30.000 cells were plated (as indicated) in the presence or in the absence of INEC (10 nM) for each condition. Histograms represents numbers of colonies (mean±SEM of three independent experiments). Results are presented as mean±SEM of 4 independent experiments.
Colony formation by transformed or not mouse cells was examined with the use of Methocult medium (MethoCult GF M3434, StemCell Technologies). WT and VDR−/− cells infected were collected from BMT with oncogene or not and transferred to Methocult medium. Colonies were scored one week after plating for determination of the number of colonies. For serial plating cells were collected from methylcellulose, washed once in PBS, counted and replated in Methocult. For some experiments, 10 nM Inecalcitol (hybrigenics) was added to the culture medium.
LIC are a subset of leukemic cells in the bulk leukemia population bearing resistance to chemotherapy and therefore at the origin of relapses. Next we explored the efficacy of VDR agonist therapy in targeting LIC cells. To test this hypothesis we transduced bone marrow precursors from wild-type and VDR−/− mice with the FLT3-ITD construct. Cells were plated in semi-solid cultures containing INEC or vehicle as a control (FIG. 6A). […] To further examine is the INEC effect was reversible we divided 2nd replating INEC-treated cultures in two groups containing INEC or a vehicle.

Assay [12] deals with FLT3-ITD/NPM1 AML blasts. In words: Adoptive transfer of FLT3-ITD/NPM1 AML blasts and bone marrow cells in mice. The format is in vivo, mouse. The source says:
In agreement, biological as well as immunophenotypic markers of leukemia cells were normalized in INEC-treated animals (FIG. 6C).

In assay [13] the test system is FLT3-ITD/NPM1 AML blasts. Description: In vitro treatment of FLT3-ITD/NPM1 AML blasts, myeloid differentiation markers. The format is cell-based.

`Nc1ncn([C@@H]2O[C@H](CO)[C@@H](O)[C@H]2O)c(=O)n1` [5-AZA, 5-azacytidine]: in assay [1], the VDR promoter methylation result was “decrease in methylation”. Further, the “expression of VDR targeted genes (CAMP and CYP24A1)” value in assay [2] (5-AZA 5 μM or Vitamin D 1000 μM) is recorded as “induced the expression”. For the same compound, the “VDR expression, fold increase” value in [2] (5-AZA 5 μM) is reported as 2 fold. The “increase in myeloid differentiation (CD11b and CD14 expression), fold increase compared to vehicle” value in assay [3] is recorded as 1.3 fold. In assay [4], the “survival of xenografted mice” value is given as “did not observe a significant effect” and the “tumor size / tumor growth” value was “did not observe a significant effect”. In addition, the “VDR promoter methylation (MS-HRM)” value in [5] is given as “revert VDR promoter methylation”. Besides, the “cell sensitivity (viability)” value in [6] is “sensitive”. Also, the VDR-target genes expression result in assay [7] was “induces VDR-target genes expression”. Moreover, the cell survival result in assay [8] was “not altered”.

Regarding `C[C@H](CC#CC(C)(C)O)[C@H]1CC[C@@H]2/C(=C/C=C3C[C@@H](O)C[C@H](O)C3)CCC[C@@]21C` [INEC, 19-nor-14-epi-23-yne-1,25-(OH)2D3], in assay [9], the “β-catenin pathway / expression” value was “inhibits β-cathenin pathway”. Also, the “increase in myeloid differentiation (CD11b and CD14 expression), fold increase compared to vehicle” value in [3] worked out at 4.5 fold. In [4], the “survival of xenografted mice” value is listed as “did not observe a significant effect” and the “tumor size / tumor growth” value is recorded as “did not observe a significant effect”. Moreover, the “effectiveness to promote AML cells differentiation relative to VD” value in [10] stood at 1000 fold. For the same compound, in assay [11] (2nd replating INEC-treated cultures switched to vehicle), the “CFC after INEC wash-out” value is given as “reestablished CFC”. Moreover, the “decrease in clonogenic potential compared to vehicle-treated cells” value in [11] (INEC 10 nM in methylcellulose, first plating) was determined as 5 fold. Besides, the “colonies at the 4th round of plating” value in assay [11] (INEC 10 nM, serial replating) is given as “virtually no colonies”. Besides, the “leukemia development after passive transfer of BM cells from treated animals” value in assay [12] (in comparison to mock-treated animals) is on record as “strongly delayed leukemia development”. Also, in assay [12] (mouse, in vivo), the “biological and immunophenotypic markers of leukemia cells in treated animals” value was “normalized”; the “leukemia development in mice adoptively transferred with treated cells” value is on record as “not able to develop leukemia”. In addition, the “expression of myeloid differentiation markers” value in assay [13] is “increased expression”.
